Measured values as given in article PMC5198968 (Cancer Science, 2016).

Tested on: Japanese patients with advanced hepatocellular carcinoma
Assay: Efficacy: tumor response
Assay type: in vivo, human

SMILES: COC(=O)c1ccc2c(c1)NC(=O)/C2=C(\Nc1ccc(N(C)C(=O)CN2CCN(C)CC2)cc1)c1ccccc1 [nintedanib]
- Objective tumor response (RECIST 1.0, investigator assessment) (both groups): no complete or partial responses
- Stable disease (group I (12 patients; 10 treated at the MTD)): 75.0%
- Patients with response by AFP (decline from baseline of >20% in AFP levels) (group I, nine patients (56.3%) evaluable): three
- Patients who had progressed at the time of analysis (group I, of 16 patients): 15 patients
- Median time to progression (TTP) (group I, overall, 95% CI 1.05–5.52): 2.8 months
- Median time to progression (TTP) (group I, prior sorafenib treatment, 95% CI 1.05–5.68): 2.8 months
- Median time to progression (TTP) (group I, treated at the MTD of 200 mg b.i.d., 95% CI 1.05–5.52): 2.8 months
- Patients who had progressed at the time of analysis (group II, all patients): 14 patients
- Patients with response by AFP (group II, nine patients (64.3%) evaluable): three
- Median time to progression (TTP) (group II, overall, 95% CI 0.95–6.70): 3.2 months
- Median time to progression (TTP) (group II, prior sorafenib treatment, 95% CI 0.95–6.70): 2.8 months
- Median time to progression (TTP) (group II, treated at the MTD of 200 mg b.i.d., 95% CI 0.95–5.62): 2.8 months
- Computed tomography finding in metastatic lymph node lesions (one patient of group I, after 1 month of nintedanib treatment): tumor necrosis
- Stable disease (patients in each group): > 75%
